From patent publication US11672788B2, “Histone deacetylase inhibitors for immunomodulation in tumor microenvironment” (GREAT NOVEL THERAPEUTICS BIOTECH & MEDICALS CORPORATION, priority 2020, dated 2023)
Values after ≈ are worked out from the molar mass of the structure shown.

What was measured:
[1] = Saturation solubility; assay type: physicochemical; conditions: ddH2O, 25° C., mean ± SD, BDL: Below detection limit; for Saturation Solubility: 90 minutes
Procedure: Samples of 5 mg of compounds were added to 5 ml volumetric flasks containing ddH2O and shaken at 100 rpm in an incubator at 25° C. for 90 minutes. The resulting suspension was filtered through a 0.22 μm filter. The concentrations of compounds were determined spectrophotometrically at 256 nm. The saturation solubility of each sample was determined in triplicates and the mean value and standard deviation were reported.

[2] = system: NCI-N87; test: In vitro cytotoxicity MTT assay; assay type: cell-based; conditions: Homo sapiens, 72 h, IC50 ± SD
Procedure: (§1) Six different cell lines were used, including human breast cancer cell line MDA-MB-231 (6×10^3), MDA-MB-453 (2.4×10^4), SK-BR-3 (6×10^3), human breast epithelial cell line M10 (6×10^3), human gastric carcinoma NCI-N87 (2.4×10^4), and human colorectal adenocarcinoma SW48 (2.4×10^4), and seeded in a 96 well plate. Cell lines were obtained from Bioresource Collection and Research Center, BCRC, Taiwan. […] After 72 h, MTT assay (Cayman™) was used to determine the cellular viability.

[3] = system: SK-BR-3; test: In vitro cytotoxicity MTT assay; assay type: cell-based; conditions: Homo sapiens, 72 h, IC50 ± SD
Procedure: as §1

[4] = system: M10; test: In vitro cytotoxicity MTT assay; assay type: cell-based, human; conditions: IC50 ± SD
Procedure: as §1

[5] = system: MDA-MB-231; test: In vitro cytotoxicity MTT assay; assay type: cell-based, human; conditions: IC50 ± SD
Procedure: as §1

[6] = system: MDA-MB-453; test: In vitro cytotoxicity MTT assay; assay type: cell-based, human; conditions: IC50 ± SD
Procedure: as §1

[7] = system: SW48; test: In vitro cytotoxicity MTT assay; assay type: cell-based, human; conditions: IC50 ± SD
Procedure: as §1

[8] = target: T1, HDAC3 (Homo sapiens (Human), UniProt O15379); test: HDAC3 enzymatic kinetic assay; assay type: biochemical; conditions: 2 μM; 20 min, 40 min and 60 min
T1 sequence (O15379 whole entry): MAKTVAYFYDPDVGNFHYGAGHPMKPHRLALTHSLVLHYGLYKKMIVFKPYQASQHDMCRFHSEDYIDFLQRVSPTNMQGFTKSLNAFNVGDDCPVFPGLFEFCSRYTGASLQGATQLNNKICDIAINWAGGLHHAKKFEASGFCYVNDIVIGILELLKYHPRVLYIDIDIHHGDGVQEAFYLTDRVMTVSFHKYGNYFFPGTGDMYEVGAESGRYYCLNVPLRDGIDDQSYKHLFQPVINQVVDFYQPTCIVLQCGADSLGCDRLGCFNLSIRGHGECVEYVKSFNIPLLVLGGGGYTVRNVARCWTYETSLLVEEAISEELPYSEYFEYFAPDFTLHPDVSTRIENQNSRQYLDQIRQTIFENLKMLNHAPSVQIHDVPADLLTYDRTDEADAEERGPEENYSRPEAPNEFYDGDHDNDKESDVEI
T1 sequence (Q9Y618 395-489 partner): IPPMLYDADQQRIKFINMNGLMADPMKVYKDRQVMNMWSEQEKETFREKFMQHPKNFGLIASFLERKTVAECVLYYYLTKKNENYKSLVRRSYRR
Procedure: (§2) HDAC3 enzymatic kinetic assay was performed according to standard Protocols (Fluorgenic HDAC3 assay kit, BPS Bioscience™). […] After incubation, assay developer was added to the samples and the absorbance was read at fluorogenic wavelength. The relative inhibition to HDAC3 activity in each sample was determined.

[9] = system: SW48 cells; test: Cell cycle arrest by PI flow cytometry; assay type: cell-based, human; conditions: for Percentage of Cell Cycle Distribution G0/G1 / Percentage of Cell Cycle Distribution G2/M / Percentage of Cell Cycle Distribution S: 72 h; for Cell cycle arrest: SW48, doses of Table 12
Procedure: (§3) A PI/RNase staining assay (BD Bioscience™) was performed to reveal the presence of cell cycle arrest and apoptotic cells after treatment with GNTbm compounds, Chidamide and Entinostat. […] After treatment cells were harvested, fixed with 80% ethanol for 24 h, washed with 1×PBS and stained with PI/RNase for 15 min at room temperature. The cells were then analyzed using Flow Cytometer within 1 h.

[10] = system: SW48 cells; test: Cell apoptosis (sub-G1) by PI flow cytometry; assay type: cell-based, human; conditions: 72 h; for Induction of apoptosis: SW48, indicated doses (Table 13)
Procedure: as §3

[11] = target: HDAC1 (Homo sapiens (Human), UniProt Q13547); test: HDACs 1, 2, and 3 enzymatic inhibition (fluorogenic kit, 1 h); assay type: biochemical; conditions: 37° C.
Chain of HDAC1 (Q13547 whole entry): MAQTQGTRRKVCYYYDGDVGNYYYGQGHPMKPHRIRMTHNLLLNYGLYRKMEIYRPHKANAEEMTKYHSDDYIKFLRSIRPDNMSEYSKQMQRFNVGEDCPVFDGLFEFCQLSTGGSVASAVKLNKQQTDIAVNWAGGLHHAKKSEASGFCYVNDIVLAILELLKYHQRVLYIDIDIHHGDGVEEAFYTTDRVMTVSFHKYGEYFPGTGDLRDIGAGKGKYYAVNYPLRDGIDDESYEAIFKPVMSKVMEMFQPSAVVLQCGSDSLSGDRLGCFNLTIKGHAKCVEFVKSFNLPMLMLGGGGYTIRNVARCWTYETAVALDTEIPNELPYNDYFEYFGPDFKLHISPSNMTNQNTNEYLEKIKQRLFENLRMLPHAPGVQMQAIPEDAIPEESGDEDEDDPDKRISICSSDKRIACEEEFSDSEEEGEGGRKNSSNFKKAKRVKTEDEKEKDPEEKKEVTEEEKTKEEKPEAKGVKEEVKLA
Procedure: as §2, with “HDACs” for “HDAC3 enzymatic kinetic”, “HDACs 1, 2, and 3” for “HDAC3”, “1 h,” for “incubation,”, “HDACs 1, 2, and 3 activities” for “HDAC3 activity”

[12] = target: HDAC2 (Homo sapiens (Human), UniProt Q92769); test: as above; assay type: biochemical; conditions: 37° C.
Chain of HDAC2 (Q92769 whole entry): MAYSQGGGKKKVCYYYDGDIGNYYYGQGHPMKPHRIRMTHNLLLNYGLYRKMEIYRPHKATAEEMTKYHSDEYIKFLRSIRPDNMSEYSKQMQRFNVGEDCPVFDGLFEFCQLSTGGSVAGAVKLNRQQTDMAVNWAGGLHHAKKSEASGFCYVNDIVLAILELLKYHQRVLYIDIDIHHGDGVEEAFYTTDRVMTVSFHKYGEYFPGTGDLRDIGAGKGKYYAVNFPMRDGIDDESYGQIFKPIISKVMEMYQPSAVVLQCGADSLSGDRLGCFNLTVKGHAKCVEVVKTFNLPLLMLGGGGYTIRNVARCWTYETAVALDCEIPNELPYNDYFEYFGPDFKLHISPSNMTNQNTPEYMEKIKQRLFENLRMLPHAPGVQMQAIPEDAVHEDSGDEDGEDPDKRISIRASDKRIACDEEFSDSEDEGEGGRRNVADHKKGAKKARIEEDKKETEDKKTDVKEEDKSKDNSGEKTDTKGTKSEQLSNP
Procedure: as §2, with “HDACs” for “HDAC3 enzymatic kinetic”, “HDACs 1, 2, and 3” for “HDAC3”, “1 h,” for “incubation,”, “HDACs 1, 2, and 3 activities” for “HDAC3 activity”

[13] = target: T1, HDAC3; test: as above; assay type: biochemical; conditions: 37° C.
Procedure: as §2, with “HDACs” for “HDAC3 enzymatic kinetic”, “HDACs 1, 2, and 3” for “HDAC3”, “1 h,” for “incubation,”, “HDACs 1, 2, and 3 activities” for “HDAC3 activity”

[14] = system: histone H3 acetylation (AcH3) in SW48 cells; test: Western blot of histone H3 acetylation; assay type: cell-based, human; conditions: SW48, 24 h, FIG. 12c
Procedure: Human breast cancer MDA-MB-231 cells and human colorectal adenocarcinoma SW48 cells were analyzed. MDA-MB-231 and SW48 were obtained from Bioresource Collection and Research Center (BCRC, Taiwan). MDA-MB-231 and SW48 were grown at 37° C. under humidified air supplemented without CO2 in Leibovitz's L-15 (cat. #11415114, Thermo Fisher Scientific) containing 10% heat inactivated fetal calf serum (Thermo Scientific), 1× concentration of MycoZap antibiotics (cat. #VZA-2011, Lonza). Cells were treated with GNTbm compounds series, Chidamide or Entinostat for different time periods or at varied doses. Cells were treated with indicated doses for 24 h or cells were treated with indicated doses for different time periods. Cell pellets were dissolved with RIPA buffer (cat. #20-188, Merck) with protease and phosphatase inhibitors (cat. #K272, BioVision) and clarified by centrifugation. Equal amounts of total protein were resolved by SDS-PAGE and transferred to polyvinylidene fluoride membranes (cat. #1620177, BIO-RAD). Blots were incubated with primary antibodies against β-actin (cat. #sc-47778, Santa Cruz Biotechnology), Histone 3ac (cat. #61637, Active Motif), and HRP secondary antibodies anti-rabbit (ab6721, Abcam) and anti-mouse (sc-2005, Santa Cruz). Blots were developed using the ECL Western Blotting Substrate (cat. #sc-2048, Santa Cruz Biotechnology) Image blots were analyzed with the iBright FL1000 (Thermo Fisher Scientific) imaging systems.

Saturation Solubility [1] | IC50 [11] [nM] | IC50 [12] [nM] | IC50 [13] [nM] | SMILES | IC50 [2] [nM] | IC50 [3] [nM] | IC50 ([4]; Homo sapiens, M10, 72 h) [nM] | IC50 ([5]; Homo sapiens, MDA-MB-231, 72 h) [nM] | IC50 ([6]; Homo sapiens, MDA-MB-453, 72 h) [nM] | Inhibition of HDAC 3 enzyme activities (kinetics) [8] | Cell cycle arrest [9] | IC50 ([7]; Homo sapiens, SW48, 72 h) [nM] | Percentage of Cell Cycle Distribution G0/G1 ([9]; SW48, 0.125 μM) [%] | Percentage of Cell Cycle Distribution G2/M ([9]; SW48, 0.125 μM) [%] | Percentage of Cell Cycle Distribution S ([9]; SW48, 0.125 μM) [%] | Percentage of Cell Cycle Distribution G0/G1 ([9]; SW48, 0.5 μM) [%] | Percentage of Cell Cycle Distribution G2/M ([9]; SW48, 0.5 μM) [%] | Percentage of Cell Cycle Distribution S ([9]; SW48, 0.5 μM) [%] | Percentage of Cell Cycle Distribution G0/G1 ([9]; SW48, 1 μM) [%] | Percentage of Cell Cycle Distribution G2/M ([9]; SW48, 1 μM) [%] | further results
BDL |  |  |  | Nc1cc(F)ccc1NC(=O)c1ccc(CNC(=O)/C=C/c2cccnc2)cc1 [Chidamide, reference compound] | 3090 ± 200 | 3240 ± 980 | 2720 ± 2600 | 25600 ± 3050 | 1770 ± 20 | stronger inhibition of HDAC 3 enzyme activities than Entinostat | induced cell cycle arrest in the G0/G1 phase |  |  |  |  |  |  |  |  |  | IC50 ([4]; 72 h): 4940 ± 870 nM; IC50 ([5]; 72 h): 17400 ± 1980 nM; IC50 ([6]; 72 h): 1360 ± 120 nM; IC50 ([7]; 72 h): 5430 ± 1060 nM; Percentage of Cell Cycle Distribution G0/G1 ([9]; SW48, 0.3125 μM): 65.7%; Percentage of Cell Cycle Distribution G2/M ([9]; SW48, 0.3125 μM): 16.7%; Percentage of Cell Cycle Distribution S ([9]; SW48, 0.3125 μM): 17.6%; Percentage of Cell Cycle Distribution G0/G1 ([9]; SW48, 0.625 μM): 68.1%; Percentage of Cell Cycle Distribution G2/M ([9]; SW48, 0.625 μM): 17.5%; Percentage of Cell Cycle Distribution S ([9]; SW48, 0.625 μM): 14.4%; Percentage of Cell Cycle Distribution G0/G1 ([9]; SW48, 1.25 μM): 70.6%; Percentage of Cell Cycle Distribution G2/M ([9]; SW48, 1.25 μM): 15.3%; Percentage of Cell Cycle Distribution S ([9]; SW48, 1.25 μM): 14.1%; Percentage of Cell Cycle Distribution G0/G1 ([9]; SW48, 5 μM): 79.9%; Percentage of Cell Cycle Distribution G2/M ([9]; SW48, 5 μM): 11.6%; Percentage of Cell Cycle Distribution S ([9]; SW48, 5 μM): 8.5%; Percentages of Cell Apoptosis ([10]; SW48, 0.3125 μM): 9.0%; Percentages of Cell Apoptosis ([10]; SW48, 0.625 μM): 10.2%; Percentages of Cell Apoptosis ([10]; SW48, 1.25 μM): 15.1%; Percentages of Cell Apoptosis ([10]; SW48, 5 μM): 35.4%
 | 380 ± 40 | 540 ± 7 | 200 ± 100 | Nc1cc(F)ccc1NC(=O)c1ccc(NC(=O)C/C=C/c2cccnc2)cn1 [GNTbm-04, 5-((E)-4-(pyridin-3-yl)but-3-enamido)-N-(2-amino-4-fluorophenyl)pyridine-2-carboxamide] | 340 ± 40 |  | 1810 ± 60 | 1640 ± 4 | 1590 ± 3 |  | significant induced cell cycle arrest in G0/G1 phase in SW48 cells | 600 ± 90 | 56.9 | 25.2 | 17.9 | 63.2 | 19.3 | 17.5 | 67.2 | 18.9 | solubility at 90 min ([1]; water, thermodynamic from solid): 7.2 µg/mL (≈ 18.4 µM); Percentage of Cell Cycle Distribution S ([9]; SW48, 1 μM): 13.9%; Percentage of Cell Cycle Distribution G0/G1 ([9]; SW48, 2 μM): 70.5%; Percentage of Cell Cycle Distribution G2/M ([9]; SW48, 2 μM): 18.7%; Percentage of Cell Cycle Distribution S ([9]; SW48, 2 μM): 10.8%; Percentages of Cell Apoptosis ([10]; SW48, 0.125 μM): 2.9%; Percentages of Cell Apoptosis ([10]; SW48, 0.5 μM): 10.8%; Percentages of Cell Apoptosis ([10]; SW48, 1 μM): 20.8%; Percentages of Cell Apoptosis ([10]; SW48, 2 μM): 32%; Induction of apoptosis [10]: potent in inducing apoptosis in SW48 cells; Histone 3 acetylation expression versus Chidamide [14]: more potent in inducing the histone 3 acetylation expression in SW48 cells than Chidamide
BDL | 560 ± 40 | 510 ± 50 | 670 ± 60 | Cc1ccc(/C=C/CC(=O)Nc2ccc(C(=O)Nc3ccc(F)cc3N)cc2)cn1 [GNTbm-03, 4-((E)-4-(6-methylpyridin-3-yl)but-3-enamido)-N-(2-amino-4-fluorophenyl)benzamide] |  | 4070 ± 680 | 6100 ± 134 | 26700 ± 5800 | 1810 ± 8 | stronger inhibition of HDAC 3 enzyme activities than GNTbm-01 |  | 5260 ± 900 |  |  |  |  |  |  |  |  | 
 | 6770 ± 760 | 2680 ± 200 | 2750 ± 130 | Cc1ccc(/C=C/CC(=O)Nc2ccc(C(=O)Nc3ccc(F)cc3N)cn2)cn1 [GNTbm-01, 6-((E)-4-(6-methylpyridin-3-yl)but-3-enamido)-N-(2-amino-4-fluorophenyl)pyridine-3-carboxamide] |  | 28500 ± 1850 | 24800 ± 1150 | 49800 ± 4900 | 20900 ± 4440 |  |  | > 50000 |  |  |  |  |  |  |  |  | 
 | 3700 ± 40 | 680 ± 30 | 890 ± 130 | Nc1cc(F)ccc1NC(=O)c1ccc(NC(=O)C/C=C/c2cccnc2)cc1 [GNTbm-39, 4-((E)-4-(pyridin-3-yl)but-3-enamido)-N-(2-amino-4-fluorophenyl)benzamide] | 640 ± 30 |  | 1960 ± 20 | 2930 ± 450 | 1840 ± 20 |  | significantly induced cell cycle arrest in the G2/M phase in SW48 cells | 1730 ± 10 | 57.2 | 22.3 | 20.5 | 58.8 | 24.7 | 16.5 | 46.5 | 32.8 | Percentage of Cell Cycle Distribution S ([9]; SW48, 1 μM): 20.7%; Percentage of Cell Cycle Distribution G0/G1 ([9]; SW48, 2 μM): 42.3%; Percentage of Cell Cycle Distribution G2/M ([9]; SW48, 2 μM): 38.9%; Percentage of Cell Cycle Distribution S ([9]; SW48, 2 μM): 18.8%; Percentages of Cell Apoptosis ([10]; SW48, 0.125 μM): 9.5%; Percentages of Cell Apoptosis ([10]; SW48, 0.5 μM): 17.8%; Percentages of Cell Apoptosis ([10]; SW48, 1 μM): 25.4%; Percentages of Cell Apoptosis ([10]; SW48, 2 μM): 37.8%; Induction of apoptosis [10]: potent in inducing apoptosis in SW48 cells; Histone 3 acetylation expression versus Chidamide [14]: more potent in inducing the histone 3 acetylation expression in SW48 cells than Chidamide
